Results on 5 compounds are retold here after publication PMC3066543, “Procyanidins are potent inhibitors of LOX-1: a new player in the French Paradox” (Proceedings of the Japan Academy. Series B, Physical and …, 2011).

Series [1] in a line: Plasma concentrations of procyanidin B2 and C1 in rats given OPC. Conditions: male, stroke-prone spontaneously hypertensive (SHR-SP), rat, po, 0.5 % (w/v) OPC in drinking saline, rats given 0.5% OPC orally in drinking saline for two days, sampled 7:00–8:00. The class given is in vivo. The procedure: All protocols were approved by the Institutional Animal Care and Use Committee of the National Cerebral and Cardiovascular Center. Animals were individually housed at 23 ± 2 ℃ with 12 h light-dark cycles (7:00–19:00 light-on). Eight-week-old male stroke-prone spontaneously hypertensive rats (SHR-SP) (CLEA Japan, Tokyo, Japan) were divided into two groups (n = 8 each) with similar blood pressure, heart rates and body weights (tail cuff and pulse transducer system, BP-98A, Softron, Tokyo, Japan). They were given high fat diet without cholic acid or vitamin E (CLEA Japan, Tokyo, Japan) and physiological saline as drinking water for 2 weeks. Half of the rats received physiological saline containing 0.5%(w/v) oligomeric procyanidins (OPC) with various chain lengths purified from apples. At the end of the study, the rats were euthanized with isoflurane inhalation and blood was collected from vena cava between 11:00–14:00. The rats were perfused systemically with physiological saline for Oil Red O staining. Total cholesterol, high-density lipoprotein (HDL) cholesterol, triglyceride, and thiobarbituric acid reactive substance (TBARS) were determined enzymatically using commercially available kits (Wako Pure Chemical Industries, Osaka, Japan; Zeptometrix corporation, Buffalo, NY, USA). […]

The next series deals with T1, human LOX-1 (Homo sapiens, UniProt P78380).
T1 construct: expressed in transfected cells; host or cells: CHO-K1 (LOX-1-CHO), doxycycline-induced
The series is described as follows: DiI-oxLDL binding to LOX-1-CHO cells (4 ℃, 45 min). The class given is cell-based. Here is the method: Tetracycline-inducible human LOX-1 (tagged with V5-6×His at C-terminus) expressing CHO-K1 (LOX-1-CHO) cells were maintained as previously described.[8]) The cells were seeded in 96-well plate at 10^4 cells/well in the presence of doxycycline (1 µg/mL) (Calbiochem, La Jolla, CA, USA) and were incubated in Ham’s F-12 medium containing 10% FBS at 37 ℃ for 24 h. After being washed with the medium without FBS, the cells were treated with foodstuff extracts or an anti-LOX-1 antibody at the final concentration of 10 µg/mL for 1 h. […] After washing, the cells were fixed with 10% formalin, and were stained with 4′,6-diamidino-2-phenylindole (DAPI) (Sigma, St. Louis, MO, USA). The binding of DiI-oxLDL to LOX-1-CHO cells were determined similarly to the uptake assay, except that the incubation of DiI-oxLDL was performed at 4 ℃ for 45 min. The samples were subjected to fluorescence microscopic analysis (Axiovert 200M, Zeiss, Oberkochen, Germany) or quantitative fluorescence analysis using the IN Cell analyzer system (GE Healthcare, Fairfield, CT, USA). Cell-associated DiI-oxLDL was determined as a ratio of DiI-oxLDL fluorescence intensity per cell in the presence of foodstuff extracts to that in the absence of extracts. All experiments were conducted in more than triplicates. For the determination of fluorescence quenching by procyanidins, the fluorescence was also measured before washing out unbound DiI-oxLDL (Spectramax, Molecular Devices, Sunnyvale, CA, USA). The final concentration of DMSO was less than 0.1% of total volume.

The IC50 is the point on the concentration scale where inhibition reaches its midpoint. Higher therefore signals a need for much substance.

As to `Oc1cc(O)c2c(c1)O[C@H](c1ccc(O)c(O)c1)[C@H](O)[C@H]2c1c(O)cc(O)c2c1O[C@H](c1ccc(O)c(O)c1)[C@H](O)C2` [procyanidin B2, epicatechin(4β-8)epicatechin], the concentration at 2 days in series [1] was 7.9 ± 1.8 ng/mL.
In turn, `Oc1cc(O)c2c(c1)O[C@H](c1ccc(O)c(O)c1)[C@H](O)[C@H]2c1c(O)cc(O)c2c1O[C@H](c1ccc(O)c(O)c1)[C@H](O)[C@H]2c1c(O)cc(O)c2c1O[C@H](c1ccc(O)c(O)c1)[C@H](O)C2` [procyanidin C1, epicatechin(4β-8)epicatechin(4β-8)epicatechin] yielded a concentration at 2 days in series [1] of 4.9 ± 1.9 ng/mL. Moreover, the “fluorescence of DiI-oxLDL in LOX-1-CHO cells (binding, microscopy)” value at human LOX-1 (300 ng/mL, DiI-oxLDL 10 µg/mL, Fig. 4A) is “significantly attenuated”. Besides, the IC50 is 8.08 nM at human LOX-1 (DiI-oxLDL 1 µg/mL, data not shown); 30 nM on human LOX-1 (DiI-oxLDL 3 µg/mL, data not shown); 58.8 nM on human LOX-1 (DiI-oxLDL 10 µg/mL).
With `Oc1cc(O)c2c(c1)OC(c1ccc(O)c(O)c1)C(O)C2c1c(O)cc2c(c1O)C(c1c(O)cc(O)c3c1OC(c1ccc(O)c(O)c1)C(O)C3)C(O)C(c1ccc(O)c(O)c1)O2` (stereo not drawn) [epicatechin(4β-6)epicatechin(4β-8)catechin], the IC50 at human LOX-1 (DiI-oxLDL 10 µg/mL) was 54.2 nM.
As for `Oc1cc(O)c2c(c1)OC(c1ccc(O)c(O)c1)C(O)C2c1c(O)cc(O)c2c1OC(c1ccc(O)c(O)c1)C(O)C2c1c(O)cc(O)c2c1OC(c1ccc(O)c(O)c1)C(O)C2` (stereo not drawn) [epicatechin(4β-8)epicatechin(4β-8)catechin], the concentration for half-maximal inhibition (IC50) on human LOX-1 (DiI-oxLDL 10 µg/mL) is 47.3 nM.
Regarding `Oc1cc(O)c2c(c1)OC(c1ccc(O)c(O)c1)C(O)C2c1c(O)cc2c(c1O)C(c1c(O)cc(O)c3c1OC(c1ccc(O)c(O)c1)C(O)C3)C(O)C(c1ccc(O)c(O)c1)O2` (stereo not drawn) [epicatechin(4β-6)epicatechin(4β-8)epicatechin], the IC50 on human LOX-1 (DiI-oxLDL 10 µg/mL) was 84.2 nM.
